In patent publication US12084472B2 (Ardelyx, Inc., priority 2015, dated 2024):

Target: T1, human TGR5 (Homo sapiens, UniProt Q8TDU6)
T1 construct: expressed in transfected cells; host or cells: HEK293
T1 sequence (Q8TDU6 1-330): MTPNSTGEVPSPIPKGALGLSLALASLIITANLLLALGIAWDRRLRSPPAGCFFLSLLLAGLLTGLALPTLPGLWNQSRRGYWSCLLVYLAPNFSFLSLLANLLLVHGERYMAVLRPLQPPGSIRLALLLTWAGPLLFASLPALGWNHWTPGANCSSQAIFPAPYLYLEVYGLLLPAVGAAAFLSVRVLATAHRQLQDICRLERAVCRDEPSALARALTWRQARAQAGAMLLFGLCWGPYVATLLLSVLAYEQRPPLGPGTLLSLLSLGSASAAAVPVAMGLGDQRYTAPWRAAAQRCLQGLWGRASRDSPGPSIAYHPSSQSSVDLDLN
Assay: Cell-based TGR5 assay (cAMP generation, HTRF)
Conditions: HEK293 cells stably transfected with human TGR5; cAMP by HTRF; 30 minutes at 37° C.; read-out: pEC50 Human TGR5 (converted)
Method in brief: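 Read-out was HTRF detection of cAMP, converted to concentration via a standard curve and fitted (3-parameter logistic) for pEC50 and maximal response. Agonist stimulation used HEK293 cells stably transfected with human TGR5, incubated 30 min at 37° C in IBMX-containing buffer at 0.05 nM to 10 μM compound.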

| EC50 | SMILES |
| --- | --- |
| 126 to 1000 nM | CC(=O)N(CCSc1ccc(Cl)c(CNC2(c3cnccc3-c3ccccc3OC3CC3)CC2)c1)C[C@H](O)[C@@H](O)[C@H](O)[C@H](O)CO [Compound I-504, N-[2-({4-chloro-3-[({1-[4-(2-cyclopropoxyphenyl)pyridin-3-yl]cyclopropyl}amino)methyl]phenyl}sulfanyl)ethyl]-N-[(2S,3R,4R,5R)-2,3,4,5,6-pentahydroxyhexyl]acetamide] |
| < 100 nM | CC(=O)N(CCSc1ccc(Cl)c(COC2(c3cnccc3-c3ccccc3OC3CC3)CC2)c1)C[C@H](O)[C@@H](O)[C@H](O)[C@H](O)CO [Compound I-505, N-(2-{[4-chloro-3-({1-[4-(2-cyclopropoxyphenyl)pyridin-3-yl]cyclopropoxy}methyl)phenyl]sulfanyl}ethyl)-N-[(2S,3R,4R,5R)-2,3,4,5,6-pentahydroxyhexyl]acetamide] |
| < 100 nM | CN(CCCSc1ccc(Cl)c(COC2(c3cnccc3-c3ccccc3OC3CC3)CC2)c1)C(=O)[C@@H](O)[C@@H](O)[C@H](O)[C@@H](O)CO [Compound I-508, (2S,3S,4R,5S)-N-(3-{[4-chloro-3-({1-[4-(2-cyclopropoxyphenyl)pyridin-3-yl]cyclopropoxy}methyl)phenyl]sulfanyl}propyl)-2,3,4,5,6-pentahydroxy-N-methylhexanamide] |
| < 100 nM | CN(CCCCSc1ccc(Cl)c(COC2(c3cnccc3-c3ccccc3OC3CC3)CC2)c1)C(=O)[C@@H](O)[C@@H](O)[C@H](O)[C@@H](O)CO [Compound I-510, (2S,3S,4R,5S)-N-(4-{[4-chloro-3-({11-[4-(2-cyclopropoxyphenyl)pyridin-3-yl]cyclopropoxy}methyl)phenyl]sulfanyl}butyl)-2,3,4,5,6-pentahydroxy-N-methylhexanamide] |

The remaining lines, values behind:

| SMILES | EC50 |
| --- | --- |
| CC(=O)N(CCCCSc1ccc(Cl)c(CNC2(c3cnccc3-c3ccccc3OC3CC3)CC2)c1)C[C@H](O)[C@@H](O)[C@H](O)[C@H](O)CO [Compound I-503, N-[4-({4-chloro-3-[({1-[4-(2-cyclopropoxyphenyl)pyridin-3-yl]cyclopropyl}amino)methyl]phenyl}sulfanyl)butyl]-N-[(2S,3R,4R,5R)-2,3,4,5,6-pentahydroxyhexyl]acetamide] | < 100 nM |
| CN(CCCCSc1ccc(Cl)c(CNC2(c3cnccc3-c3ccccc3OC3CC3)CC2)c1)C(=O)[C@@H](O)[C@@H](O)[C@H](O)[C@@H](O)CO [Compound I-506, (2S,3S,4R,5S)-N-[4-({4-chloro-3-[({1-[4-(2-cyclopropoxyphenyl)pyridin-3-yl]cyclopropyl}amino)methyl]phenyl}sulfanyl)butyl]-2,3,4,5,6-pentahydroxy-N-methylhexanamide] | < 100 nM |
| CN(CCCCCSc1ccc(Cl)c(CNC2(c3cnccc3-c3ccccc3OC3CC3)CC2)c1)C(=O)[C@@H](O)[C@@H](O)[C@H](O)[C@@H](O)CO [Compound I-507, (2S,3S,4R,5S)-N-[5-({4-chloro-3-[({11-[4-(2-cyclopropoxyphenyl)pyridin-3-yl]cyclopropyl}amino)methyl]phenyl}sulfanyl)pentyl]-2,3,4,5,6-pentahydroxy-N-methylhexanamide] | < 100 nM |
| CN(CCCCCSc1ccc(Cl)c(COC2(c3cnccc3-c3ccccc3OC3CC3)CC2)c1)C(=O)[C@@H](O)[C@@H](O)[C@H](O)[C@@H](O)CO [Compound I-509, (2S,3S,4R,5S)-N-(5-{[4-chloro-3-({1-[4-(2-cyclopropoxyphenyl)pyridin-3-yl]cyclopropoxy}methyl)phenyl]sulfanyl}pentyl)-2,3,4,5,6-pentahydroxy-N-methylhexanamide] | < 100 nM |
| CN(CCCSc1ccc(Cl)c(CNC2(c3cnccc3-c3ccccc3OC3CC3)CC2)c1)C(=O)[C@@H](O)[C@@H](O)[C@H](O)[C@@H](O)CO [Compound I-511, (2S,3S,4R,5S)-N-[3-({4-chloro-3-[({1-[4-(2-cyclopropoxyphenyl)pyridin-3-yl]cyclopropyl}amino)methyl]phenyl}sulfanyl)propyl]-2,3,4,5,6-pentahydroxy-N-methylhexanamide] | < 100 nM |
